# Test results as given in publication PMC6100603, “Exploring the Dual Inhibitory Activity of Novel Anthranilic Acid Derivatives towards α-Glucosidase and Glycogen Phosphorylase Antidiabetic Targets: Design, In Vitro Enzyme Assay, and Docking Studies” (Molecules : A Journal of Synthetic Chemistry and Natural …, 2018).
# Where “and” joins values, the source holds several entries; their conditions need not be identical. Equal values may be shown once.
# Legend:
# [1] = target: T1, Rabbit muscle glycogen phosphorylase a (Oryctolagus cuniculus, UniProt P00489); test: Glycogen phosphorylase enzyme assay (phosphate release, malachite green); format: biochemical; conditions: mean of three determinations
# T1 construct: purchased Abcam
# T1 sequence (P00489 2-843 limits assumed): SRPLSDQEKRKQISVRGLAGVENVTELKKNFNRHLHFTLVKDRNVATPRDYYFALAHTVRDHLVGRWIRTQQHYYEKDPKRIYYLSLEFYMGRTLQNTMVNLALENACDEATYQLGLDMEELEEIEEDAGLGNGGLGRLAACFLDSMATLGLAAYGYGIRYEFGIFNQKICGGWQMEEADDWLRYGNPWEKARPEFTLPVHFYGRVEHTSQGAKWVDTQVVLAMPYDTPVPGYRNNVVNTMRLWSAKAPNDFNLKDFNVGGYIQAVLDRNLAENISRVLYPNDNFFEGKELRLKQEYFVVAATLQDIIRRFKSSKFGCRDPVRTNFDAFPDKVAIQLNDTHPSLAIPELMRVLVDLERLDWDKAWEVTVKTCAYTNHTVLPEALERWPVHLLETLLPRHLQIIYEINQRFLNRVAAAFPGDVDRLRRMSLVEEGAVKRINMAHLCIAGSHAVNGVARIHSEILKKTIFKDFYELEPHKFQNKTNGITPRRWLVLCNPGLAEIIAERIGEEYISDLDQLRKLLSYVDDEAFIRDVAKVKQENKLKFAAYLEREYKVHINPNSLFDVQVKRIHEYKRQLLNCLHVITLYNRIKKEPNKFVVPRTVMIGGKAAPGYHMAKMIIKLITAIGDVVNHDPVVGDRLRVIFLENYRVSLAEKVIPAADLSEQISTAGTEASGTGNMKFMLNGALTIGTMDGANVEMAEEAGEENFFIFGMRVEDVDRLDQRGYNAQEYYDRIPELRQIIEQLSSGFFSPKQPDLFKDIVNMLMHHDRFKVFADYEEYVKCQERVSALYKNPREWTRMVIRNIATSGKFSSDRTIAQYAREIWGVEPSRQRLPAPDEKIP
# Experimental: Rabbit muscle glycogen phosphorylase a (from Abcam, 0.475 mg/ mL) activity was measured in the direction of glycogen synthesis by the release of phosphate from glucose-1-phosphate using a 384-well plate at 22 °C in […] of buffer containing 50 mM Hepes (pH 7.2), 100 mM KCl, 2.5 mM EGTA, 2.5 Mm MgCl2, 0.25 Mm glucose-1-phosphate, and 1 mg/mL glycogen with a 30-min incubation time. Phosphate was measured at 620 nm, 5 minutes after the addition of […] of 1 MHCl containing 10 mg/mL ammonium molybdate and 0.38 mg/mL malachite green. Test compounds were added to the assay in […] of 14% DMSO. Compounds were tested against a deoxynojirimycin hydrochloride (Abcam) standard in 11 point concentration response curve in duplicate on two separate occasions. Data were analyzed using GraphPad Prism v.4.03, GraphPad Software, (La Jolla, CA, USA).
# A nonlinear regression (curve fit) analysis with a sigmoidal dose response equation (variable slope) was applied to generate IC50 and hill slope values. […] Compounds were screened with maximal concentrations of […]. The assay was carefully monitored for signs of compound insolubility. The results are presented as mean values from three determinations.
# [2] = tested on: Sprague-Dawley (SD) rats with streptozocin-induced diabetes; test: In vivo antidiabetic screening, blood glucose level in STZ-induced diabetic rats; set-up: species or system rat; conditions: for Blood Glucose Level, Reading 1: 15 h fasting followed by 5-mg meal, before treatment; for Blood Glucose Level, Fasting: after fasting for 15 h, pretreatment; for Blood Glucose Level, Reading 2: second day, after oral treatment 40 mg/100 g body weight followed by 5-mg meal
# Experimental: The compound (7b) was tested on Sprague-Dawley (SD) rats for the effect on the blood glucose level, as described in the experimental Section 3.8, and the results are reported in (Table 2) and (Figure 3). Blood glucose levels were measured after fasting for 15 h (fasting reading), followed by the administration of a 5-mg meal (reading 1). Moreover, a second day reading after treatment with normal saline, acarbose, or (7b) compound blood glucose level (reading 2) followed by a 5-mg meal, was measured. […] In addition, the blood glucose level after 15 h fasting followed by a meal of 5 mg (reading 1) was compared to the blood glucose levels under the same conditions, and following the administration of normal saline, acarbose or compound (7b). For the control non-diabetic non-treated group and the diabetic non- treated group, no significant difference between (readings 1 and 2) was shown. For the group of rats treated with acarbose or compound (7b) one hour before a meal, blood glucose levels decreased from 147 ± 2 to 136 ± 3.28 and 120 ± 0.88 mg/dL to 116 ± 0.57, respectively. […] Twenty male Sprague–Dawley (SD) rats were maintained in an air-conditioned room (25 °C) at a constant humidity (55–60%). All rats were provided with a standard rat diet containing 60% carbohydrate (w/w), 2% fat (w/w), 17.5% protein (w/w), 8% fiber (w/w), and water ad libitum. The experiments were performed in accordance with the internationally accepted standard ethical guidelines for laboratory animal use and care, as described in the European Community guidelines. The Institutional Animal Ethics Committee of Al-Azhar University approved the study protocols (approval No: 409/432, 3/2018). Diabetes was induced in 12 Sprague–Dawley (SD) male rats by a single intraperitoneal injection of 40 mg/kg streptozocin (STZ) dissolved in 0.1 M/L citrate buffer at a pH of 4.5. Three rats were injected with normal saline and vehicle only to serve as negative controls. The remaining diabetic rats (nine) were identified by an increase in blood glucose more than 200 ± 10 mg/dL after one week. Blood glucose levels were measured using One Touch Ultra 2 glucometer (Lifescan inc., Wayne, USA) every week for the following two weeks to confirm the diabetic status. Rats were 6–8 weeks of age and the average weight when starting the experiment was 200 ± 20 g. Twelve rats were randomly assigned to four groups. Group 1: non-diabetic non-treated (control). Group 2: Diabetic non-treated. Group 3: Diabetic and administrated acarbose before meals. Group 4: Diabetic and administrated our new compound before a meal. Briefly; the first group was injected with an IP vehicle only. The other three groups were injected with streptozocin (STZ) and developed diabetes. The second group was diabetic and untreated. The third group was diabetic rats treated with acarbose at 40 mg per 100 g body weight 30 min. before meal using oral tube. The fourth group administrated 40 mg/100 g body weight of the test compound (7b). Rats were fasted over 15 h and blood sugar levels were measured (pretreatment). For each rat, 5 mg standard rat diet was supplied to each rat and blood glucose levels were measured to detect increases after 1 hour. Rats were fed again with the same amount after 8 h. Food was removed to allow animals to fast again for 15 h. On the following day, groups 1 and two were not given any treatment, while group 3 rats were given acarbose (positive control) and group 4 were given the test compound (7b). Blood glucose levels were measured in tail vein blood samples taken from fasting rats (time point 0), then designated groups are fed either acarbose or the test compound, suspended in PBS and delivered using an oral tube. After half an hour, the rats were given five mg. Blood samples were taken after 1 hour. Blood glucose was expected to rise after meal and the effect of the drugs was evaluated according to their abilities to control post-meal excursions.
# [3] = target: α-Glucosidase from Saccharomyces cerevisiae; test: α-Glucosidase inhibition assay (spectrophotometric, p-nitrophenyl-α-D-glucopyranoside); format: biochemical; conditions: mean ± spread, triplicate
# Experimental: α-Glucosidase inhibition assay was performed spectrophotometrically. α-Glucosidase from Saccharomyces cerevisiae (Abcam, Cambridge, UK) was dissolved in phosphate buffer (pH 6.8, 50 mM). Test compounds were dissolved in DMSO. In 96-well microtiter plates, 20 µL of test sample, 20 µL of enzyme (20 mU/mL) and 135 µL of buffer were added and incubated for 15 minutes at 37 °C. After incubation, 25 µL of p-nitrophenyl-α-D-glucopyranoside (2 mM, Abcam) was added and change in absorbance was monitored for 20 min at 400 nm. Test compound was replaced by DMSO (10% final) as control. Deoxynojirimycin hydrochloride (Abcam) was used as a standard inhibitor. The assays were done in triplicate. IC50 values were calculated from non-linear regression curve of percentage inhibition versus log compound concentration.
Compound,IC50 [1] [nM],melting point [°C],IC50 [3],other results
"OC[C@H]1NC[C@H](O)[C@@H](O)[C@@H]1O [1-Deoxynojirimycin, reference compound]",55.6 ± 110,–,–,–
"C[C@H]1O[C@H](O[C@H]2[C@H](O)[C@@H](O)[C@@H](O[C@H]3[C@H](O)[C@@H](O)C(O)O[C@@H]3CO)O[C@@H]2CO)[C@H](O)[C@@H](O)[C@@H]1N[C@H]1C=C(CO)[C@@H](O)[C@H](O)[C@H]1O (stereo partly shown) [Acarbose, reference compound]",–,–,–,"Blood Glucose Level, Reading 1 [2]: 147 ± 2.0 mg/dL; Blood Glucose Level, Reading 1 ([2]; listed as acarbose): 147 ± 2 mg/dL; Blood Glucose Level, Fasting [2]: 204 ± 4.5 mg/dL; Blood Glucose Level, Reading 2 [2]: 136 ± 3.28 mg/dL"
"COC(=O)c1ccccc1NC(=O)c1ccccn1 [Compound 1, Methyl 2-(picolinamido)benzoate]",541 ± 60,210 to 212,735 nM and 736 nM,–
"O=C(Nc1ccccc1C(=O)NCc1ccccc1)c1ccccn1 [Compound 3a, N-(2-(Benzylcarbamoyl)phenyl)picolinamide]",150 ± 70,–,89.6 nM,–
"COc1ccc(CNC(=O)c2ccccc2NC(=O)c2ccccn2)cc1 [Compound 3b, N-(2-((4-Methoxybenzyl)carbamoyl)phenyl)picolinamide]",–,225 to 227,22.3 nM,–
"O=C(Nc1ccccc1C(=O)NCc1ccc(F)cc1)c1ccccn1 [Compound 3c, N-(2-((4-Fluorobenzyl)carbamoyl)phenyl)picolinamide]",86.4 ± 20,–,–,–
"O=C(Nc1ccccc1C(=O)NCc1ccc(Cl)cc1)c1ccccn1 [Compound 3d, N-(2-((4-Chlorobenzyl)carbamoyl)phenyl)picolinamide]",177 ± 50,233 to 235,94.7 nM,–
"Cc1ccc(CNC(=O)c2ccccc2NC(=O)c2ccccn2)cc1 [Compound 3e, N-(2-((4-Methylbenzyl)carbamoyl)phenyl)picolinamide]",262 ± 10,275 to 278,–,–
"NNC(=O)c1ccccc1NC(=O)c1ccccn1 [Compound 6, N-(2-(Hydrazinecarbonyl)phenyl)picolinamide]",582 ± 580,210 to 212,–,IC50 ([3]; listed as 7): 416 nM

# Now from value to molecule, other results behind:
IC50 [1] [nM],melting point [°C],IC50 [3],Compound,other results
–,–,47.7 nM,"NS(=O)(=O)c1ccc(NC(=O)c2ccccc2NC(=O)c2ccccn2)cc1 [Compound 5a, N-(2-((4-Sulfamoylphenyl)carbamoyl)phenyl)picolinamide]",–
16.6,–,21.2 nM,"O=C(Nc1ccccc1C(=O)Nc1ccc(S(=O)(=O)Nc2ccccn2)cc1)c1ccccn1 [Compound 5b, N-(2-((4-(N-(Pyridin-2-yl)sulfamoyl)phenyl)carbamoyl)phenyl)picolinamide]",–
–,217 to 219,12.5 ± 10 nM,"O=C(Nc1ccccc1C(=O)Nc1ccc(S(=O)(=O)Nc2nccs2)cc1)c1ccccn1 [Compound 5c, N-(2-((4-(N-(Thiazol-2-yl)sulfamoyl)phenyl)carbamoyl)phenyl)picolinamide]",–
208,205 to 207,–,"O=C(Nc1ccccc1C(=O)N/N=C/c1ccccc1)c1ccccn1 [Compound 7a, (E)-N-(2-(2-Benzylidenehydrazine-1-carbonyl)phenyl)picolinamide]",–
13.7 ± 30,215 to 217,17.6 nM,"O=C(Nc1ccccc1C(=O)N/N=C/c1ccc(O)cc1O)c1ccccn1 [Compound 7b, (E)-N-(2-(2-(2,4-Dihydroxybenzylidene)hydrazine-1-carbonyl)phenyl)picolinamide]","Effect on blood glucose level compared with reference drug ([2]; 40 mg/100 g body weight oral before meal): succeeded in decreasing the blood glucose level of diabetic rats better than the reference oral antidiabetic drug, acarbose; Blood Glucose Level, Reading 1 [2]: 120 ± 0.88 mg/dL; Blood Glucose Level, Fasting [2]: 207 ± 0.88 mg/dL; Blood Glucose Level, Reading 2 [2]: 116 ± 0.57 mg/dL"
86.4,225 to 227,231 ± 570 nM,"O=C(Nc1ccccc1C(=O)N/N=C/c1ccccn1)c1ccccn1 [Compound 7c, (E)-N-(2-(2-(Pyridin-2-ylmethylene)hydrazine-1-carbonyl)phenyl)picolinamide]",–
–,212 to 214,78.4 ± 50 nM,"O=C(Nc1ccccc1C(=O)N/N=C/c1ccc(Cl)cc1Cl)c1ccccn1 [Compound 7d, (E)-N-(2-(2-(2,4-Dichlorobenzylidene)hydrazine-1-carbonyl)phenyl)picolinamide]",–
